We go through three compounds from patent US20240358782A1, “Regulatory Composition of the Neuro-Immune-Endocrine and Cortisol Reducing System of the Human Being” (priority 2020, published 2024).

Marks after values point to notes of the source that are not given here.

The test system of data set [1] is chorio-allantoic membrane of hen embryonated egg. An excerpt:
The first step was to evaluate the cytotoxicity of the composition in a chicken embryonated egg chorio-allantoic membrane (HET-CAM) assay (FIG. 1).

Data set [2] has as its system male Wistar rats. The data set can be described thus: Tissue levels of lipoperoxides (LPO) after 10 days of oral treatment (Example 1, Phase 1). The data set is classed as in vivo, rat. The settings on record: oral daily 10 days, mean ± standard error.
In data set [3] the test system is male Wistar rats. The data set can be described thus: Serum IL-10, IL-6 and TNF-alpha after 10 days of oral treatment (Example 1, Phase 1). The data set is classed as in vivo, rat. The settings on record: oral daily 10 days, dose 257 mg/kgPV (Enramicine 96 mg/kgPV), mean ± standard error. On the procedure: (§1) In Phase 1, the experiment consisted of providing the same amount (in mg), per kg of live weight (mg/kg BW), of each of the components of the composition of this invention, as well as the same amount of the composition, and comparing the effects with that of control animals, which received placebo or the antibiotic Enramycin. After 10 days, an evaluation of the immune system of the […] of each of the groups was carried out.
(§2) In this way, different groups of male Wistar rats were randomly marked on the tails for identification. The animals were adapted to the laboratory environment for one week before the treatments. Initially, after a 6 h fasting period, the body weight of the animals was determined and the dose of the Composition and Enramycin […] were calculated. The animals were divided into 11 (eleven) groups of 10 (ten) individuals. The animals were treated daily, orally (used in the animals used as reference), with placebo (vehicle; filtered water 1 mL/kg BW) or with FOS Ingredion (257 mg/kg BW), FOS Yes (257 mg/kg BW) kgPV), GOS Yes (257 mg/kgPV), Yes MOS (257 mg/kgPV), Yes GlucanMOS (257 mg/kgPV), Glucangold Yes (77 mg/kgPV), Mixture 1 (FOS Yes+GOS Yes) (257 mg/kgPV), Composition of this invention (GlucanGold Yes+GOS Yes+FOS Yes, containing 20% of 1,3 and 1,6 beta-glucans, 29% of GOS and 31% of FOS by mass on total mass %) ([…]). An experimental group called naive underwent simulated gavage (without any treatment). All the animals that composed the different experimental groups received the treatment for 10 days. At the end of the experiments, and before euthanasia, the animals were fasted for 6 hours with free access to water. Final body weight was recorded to calculate relative organ weight. Then, under anesthesia with isoflurane (2-3%), 5 mL of blood was obtained from the left jugular vein for the evaluation of biochemical parameters. After this procedure, the animals were euthanized with a supra-pharmacological dose of isoflurane (10-15%) in a saturation chamber. […]

Data set [4] relates to male Wistar rats. The data set can be described thus: Serum redox state markers after 10 days of oral treatment (Example 1, Phase 1). The class given is in vivo, rat. The settings on record: oral daily 10 days, dose 257 ml/kgPV, mean ± standard error. On the procedure: as §1, §2
For data set [5], the system named is Salmonella enterica serovar Enteritidis (phagetype PT4). The data set can be described thus: Salmonella challenge: deaths and serum cytokines (Example 1, phase 2). The class given is in vivo, rat. The settings on record: oral treatment 20 days, dose 257 mg/kgPV (Enramicine 96 mg/kgPV). An excerpt:
In phase 2, the experiment consisted of repeating the treatments of Phase 1, for 10 days, and inoculating the groups, except the so-called naive (negative control), with a high dose of Salmonella enteritidis. After 20 days, the mortality and the behavior of the immune system of the rats of each group were observed.
In this way, different groups of male rats were randomly marked on the tails for identification. The animals were adapted to the laboratory environment for one week before the beginning of the experiments. After a 6 h fasting period, the animals' body weight was determined and the dose of the prebiotics, the composition of this invention and Enramycin were calculated. The animals were divided into 11 (eleven) groups of 10 (ten) individuals. The animals were treated daily, by the oral route (used in the animals used as reference), with placebo (vehicle; filtered water 1 mL/kg BW) or with FOS ingredion (257 mg/kg BW), FOS Yes (257 mg/kg BW). kgPV), GOS Yes (257 mg/kgPV), Yes MOS (257 mg/kgPV), GlucanMOS (257 mg/kgPV), Glucangold Yes (77 mg/kgPV), Mixture 1 (FOS Yes+GOS Yes) (257 mg/kgPV), Composition of this invention (GlucanGold Yes+GOS Yes+FOS Yes, containing 20% of 1,3 and 1,6 beta-glucans, 31% of GOS and 29% of FOS by mass on mass %) ([…]). All treatments were performed for 20 days. After 10 days from the beginning of treatments, the aforementioned groups received a challenge with 1 mL (10^8 colony forming units [cfu]/mL) of a strain of Salmonella enterica serovar Enteritidis (phagetype PT4), orally (gavage).
An experimental group called naive underwent sham gavage (no treatment) and was not infected with any bacterial strain. At the end of the experiments, and before euthanasia, the surviving animals were fasted for 6 hours with free access to water. Then, under anesthesia with isoflurane (2-3%), 5 mL of blood was obtained from the left jugular vein for the evaluation of biochemical parameters. After this procedure, the animals were euthanized with a supra-pharmacological dose of isoflurane (10-15%) in a saturation chamber. Immediately after euthanasia, target organs were removed for analysis.
Table 8, below, indicates the effects of treatments with different isolated components, with the Composition according to the invention, or with Enramincin, on the serum levels of interleukin 10 (IL-10), IL-6 and tumor necrosis factor alpha (TNF-alpha) from male Wistar rats infected with Salmonella enterica.

The subject of data set [6] is monoamine oxidase (MAO). The settings on record: in vitro; cited from earlier work.
Setting [7] is: dose 257 mg/kgPV (Enramicine 96 mg/kgPV).
[8] abbreviates: dose 257 ml/kgPV (Enramicine 96 ml/kgPV).
Where [9] appears, read: serum, Salmonella-infected male Wistar rats, mean ± standard error.

`[Na+].[OH-]` [NAOH, Sodium Hydroxide]: the “hemorrhagic (cytotoxic) effect / irritation on chorio-allantoic membrane” value in data set [1] is on record as “lyse blood vessels, resulting in hemorrhage”.
With Enramycin [Enramicine], in data set [2] (setting [7]), the “LPO, Kidneys” value is 119.4 ± 7.1 U/mg of protein; the “LPO, Liver” value is listed as 170.1 ± 14.1 U/mg of protein; the “LPO, Spleen” value is reported as 117.5 ± 10.1 U/mg of protein. Moreover, in data set [2] (setting [8]), the “tissue lipoperoxides (LPO), Cecum” value is on record as 170.2 ± 10.0; the “tissue lipoperoxides (LPO), Colon” value was found to be 230.2 ± 11.2; the “tissue lipoperoxides (LPO), Ileum” value was found to be 117.9 ± 14.2. In data set [3], this compound came in with an IL-6 of 210.5 ± 25.5 pg/mL, an IL-10 of 15.3 ± 5.1 pg/mL and a TFN-alfa of 8.0 ± 1.5 pg/mL. In data set [4], this compound registered a Malondialdehyde of 2.1 ± 0.15 mmol/L, a Nitrite of 45.3 ± 5.51% and a Nitrotirosine of 0.007 ± 0.003 µmol/L. The same compound yielded a Deaths in data set [5] (male Wistar rats, Salmonella enterica challenge (1 mL, 10^8 cfu/mL) after 10 days) of 0%. Besides, in data set [5] (setting [9]), the IL-6 was 249.7 ± 37.7 pg/mL, the IL-10 is reported as 16.6 ± 0.9^b pg/ml and the TFN-alfa is 10.7 ± 1.1^b pg/ml.
As for `COc1cc(C2Oc3cc([C@H]4Oc5cc(O)cc(O)c5C(=O)[C@@H]4O)ccc3OC2CO)ccc1O` (stereo partly drawn) [siliinin], the “inhibition of monoamine oxidase (MAO) activity” value in data set [6] is recorded as “inhibits the activity of monoamine oxidase (MAO)”.
